Data taken from patent US20220324876A1, “4-SUBSTITUTED PYRANO[3,4,b]PYRAZINE KAPPA AGONISTS FOR TREATING DRUG DEPENDENCY” (The Rockefeller University, priority 2019, published 2022).
pEC50: −log10 of the molar value. Like-named read-outs stand apart in the source and are kept apart here.

Target: T1, human kappa opioid receptors (Homo sapiens, UniProt P41145)
T1 construct: expressed in transfected cells; host or cells: U2OS
Experiment: [35S]GTPγS binding, membranes from U2OS cells
Type: biochemical
Details: for EC50: GTPγS EC50 (nM), Table D; for Emax: read-out: GTPγS (% efficacy)

T1 sequence (P41145 whole entry): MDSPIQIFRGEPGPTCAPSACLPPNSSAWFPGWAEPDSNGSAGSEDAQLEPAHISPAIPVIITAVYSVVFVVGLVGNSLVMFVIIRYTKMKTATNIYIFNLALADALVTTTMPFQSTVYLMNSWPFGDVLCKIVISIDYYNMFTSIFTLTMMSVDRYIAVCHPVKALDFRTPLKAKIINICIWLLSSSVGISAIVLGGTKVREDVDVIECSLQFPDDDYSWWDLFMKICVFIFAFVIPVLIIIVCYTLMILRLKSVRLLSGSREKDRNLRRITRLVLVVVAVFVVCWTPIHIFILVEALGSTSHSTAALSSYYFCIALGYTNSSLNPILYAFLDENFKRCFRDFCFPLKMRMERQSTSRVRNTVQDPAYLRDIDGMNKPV

## O=C(Cc1ccc(Cl)c(Cl)c1)N1CCN(Cc2ncccn2)[C@@H]2COC[C@H](N3CCCC3)[C@H]21 (racemic) [rac-5A69]
  EC50: 94 nM
  Emax: 114%

## O=C(Cc1ccc(Cl)c(Cl)c1)N1CCN(CCCO)[C@@H]2COC[C@H](N3CCCC3)[C@H]21 (racemic) [rac-5A75]
  EC50: 39 nM
  Emax: 89%

## Cn1cc(CN2CCN(C(=O)Cc3ccc(Cl)c(Cl)c3)[C@H]3[C@H]2COC[C@@H]3N2CCCC2)cn1 (racemic) [rac-5A79]
  pEC50: 6.97
  Emax: 82%

## O=C(Cc1ccc(Cl)c(Cl)c1)N1CCN(Cc2ccccn2)[C@@H]2COC[C@H](N3CCCC3)[C@H]21 (racemic) [rac-5A80]
  EC50: 64 nM
  Emax: 94%

## O=C(Cc1ccc(Cl)c(Cl)c1)N1CCN(Cc2cccnc2)[C@@H]2COC[C@H](N3CCCC3)[C@H]21 (racemic) [rac-5A81]
  EC50: 7.4 nM
  Emax: 95%

## O=C(Cc1ccc(Cl)c(Cl)c1)N1CCN(CC2CCOCC2)[C@@H]2COC[C@H](N3CCCC3)[C@H]21 (racemic) [rac-5A84]
  pEC50: 6.87
  Emax: 84%

## O=C(Cc1ccc(Cl)c(Cl)c1)N1CCN(CC2CCS(=O)(=O)CC2)[C@@H]2COC[C@H](N3CCCC3)[C@H]21 (racemic) [rac-5A85]
  pEC50: 6.49
  Emax: 100%

## N#CCN1CCN(C(=O)Cc2ccc(Cl)c(Cl)c2)[C@H]2[C@H]1COC[C@@H]2N1CCCC1 (racemic) [rac-5A87]
  EC50: 20 nM
  Emax: 115%

## O=C(O)CN1CCN(C(=O)Cc2ccc(Cl)c(Cl)c2)[C@H]2[C@H]1COC[C@@H]2N1CCCC1 (racemic) [rac-5A88]
  pEC50: 5.60
  Emax: 83%

## CS(=O)(=O)CCN1CCN(C(=O)Cc2ccc(Cl)c(Cl)c2)[C@H]2[C@H]1COC[C@@H]2N1CCCC1 (racemic) [rac-5A94]
  EC50: 27 nM
  Emax: 109%

## O=C(Cc1ccc(Cl)c(Cl)c1)N1CCN(C(=O)c2ccon2)[C@@H]2COC[C@H](N3CCCC3)[C@H]21 (racemic) [rac-5A97]
  EC50: 0.8 nM
  Emax: 88%

## O=C(Cc1ccc(Cl)c(Cl)c1)N1CCN(Cc2ncon2)[C@@H]2COC[C@H](N3CCCC3)[C@H]21 (racemic) [rac-5A100]
  EC50: 1.9 nM
  Emax: 86%

## NC(=O)CN1CCN(C(=O)Cc2ccc(Cl)c(Cl)c2)[C@H]2[C@H]1COC[C@@H]2N1CCCC1 (racemic) [rac-5A102]
  EC50: 37 nM
  Emax: 96%

## Cn1nccc1CN1CCN(C(=O)Cc2ccc(Cl)c(Cl)c2)[C@H]2[C@H]1COC[C@@H]2N1CCCC1 (racemic) [rac-5A104]
  EC50: 9 nM
  Emax: 74%

## Cc1noc(CN2CCN(C(=O)Cc3ccc(Cl)c(Cl)c3)[C@H]3[C@H]2COC[C@@H]3N2CCCC2)n1 (racemic) [rac-5A105]
  EC50: 19 nM
  Emax: 82%

## O=C(Cc1ccc(Cl)c(Cl)c1)N1CCN(Cc2cn[nH]c2)[C@@H]2COC[C@H](N3CCCC3)[C@H]21 (racemic) [rac-5A107]
  EC50: 3.9 nM
  Emax: 112%

## O=C(Cc1ccc(Cl)c(Cl)c1)N1CCN(Cc2ccn[nH]2)[C@@H]2COC[C@H](N3CCCC3)[C@H]21 (racemic) [rac-5A108]
  EC50: 26 nM
  Emax: 98%

## O=C(Cc1ccc(Cl)c(Cl)c1)N1CCN(Cc2ncco2)[C@@H]2COC[C@H](N3CCCC3)[C@H]21 (racemic) [rac-5A111]
  EC50: 9.8 nM
  Emax: 146%

## CCNC(=O)CN1CCN(C(=O)Cc2ccc(Cl)c(Cl)c2)[C@H]2[C@H]1COC[C@@H]2N1CCCC1 (racemic) [rac-5A112]
  EC50: 85 nM
  Emax: 75%

## O=C(CN1CCN(C(=O)Cc2ccc(Cl)c(Cl)c2)[C@H]2[C@H]1COC[C@@H]2N1CCCC1)N1CCCC1 (racemic) [rac-5A113]
  EC50: 70 nM
  Emax: 92%

## Cc1nnc(CN2CCN(C(=O)Cc3ccc(Cl)c(Cl)c3)[C@H]3[C@H]2COC[C@@H]3N2CCCC2)o1 (racemic) [rac-5A118]
  EC50: 40 nM
  Emax: 91%

## O=C(Cc1ccc(Cl)c(Cl)c1)N1CCN(C(=O)c2ccno2)[C@@H]2COC[C@H](N3CCCC3)[C@H]21 (racemic) [rac-5A121]
  EC50: 17 nM
  Emax: 86%

## O=C(Cc1ccc(Cl)c(Cl)c1)N1CCN(C(=O)c2cc[nH]n2)[C@@H]2COC[C@H](N3CCCC3)[C@H]21 (racemic) [rac-5A122]
  EC50: 31 nM
  Emax: 79%

## O=C(Cc1ccc(Cl)c(Cl)c1)N1CCN(C(=O)c2cn[nH]c2)[C@@H]2COC[C@H](N3CCCC3)[C@H]21 (racemic) [rac-5A123]
  EC50: 39 nM
  Emax: 62%

## CN(C)S(=O)(=O)N1CCN(C(=O)Cc2ccc(Cl)c(Cl)c2)[C@H]2[C@H]1COC[C@@H]2N1CCCC1 (single isomer, unassigned) [Example 5A56A]
  EC50: 11 nM
  Emax: 77%

## CN(C)S(=O)(=O)N1CCN(C(=O)Cc2ccc(Cl)c(Cl)c2)[C@H]2[C@H](N3CCCC3)COC[C@@H]21 (single isomer, unassigned) [Example 5A56B]
  EC50: 123 nM
  Emax: 122%

## O=C(Cc1ccc(Cl)c(Cl)c1)N1CCN(CCO)[C@@H]2COC[C@H](N3CCCC3)[C@H]21 (single isomer, unassigned) [Example 5A74A]
  EC50: 21 nM
  Emax: 95%

## O=C(Cc1ccc(Cl)c(Cl)c1)N1CCN(CCO)[C@H]2COC[C@@H](N3CCCC3)[C@@H]21 (single isomer, unassigned) [Example 5A74B]
  EC50: 12 nM
  Emax: 95%

## O=C(Cc1ccc(Cl)c(Cl)c1)N1CCN(CC2COC2)[C@@H]2COC[C@H](N3CCCC3)[C@H]21 (single isomer, unassigned) [Example 5A83A]
  EC50: 199 nM
  Emax: 141%

## O=C(Cc1ccc(Cl)c(Cl)c1)N1CCN(CC2COC2)[C@H]2COC[C@@H](N3CCCC3)[C@@H]21 (single isomer, unassigned) [Example 5A83B]
  EC50: 24 nM
  Emax: 113%

## O=C(Cc1ccc(Cl)c(Cl)c1)N1CCN(C(=O)CO)[C@@H]2COC[C@H](N3CCCC3)[C@H]21 (single isomer, unassigned) [Example 5A95A]
  EC50: 21 nM
  Emax: 87%

## O=C(Cc1ccc(Cl)c(Cl)c1)N1CCN(C(=O)CO)[C@H]2COC[C@@H](N3CCCC3)[C@@H]21 (single isomer, unassigned) [Example 5A95B]
  EC50: 202 nM
  Emax: 78%

## O=C(Cc1ccc(Cl)c(Cl)c1)N1CCN(C(=O)C2(O)CCCC2)[C@@H]2COC[C@H](N3CCCC3)[C@H]21 (single isomer, unassigned) [Example 5A125A]
  EC50: 58 nM
  Emax: 95%

## O=C(Cc1ccc(Cl)c(Cl)c1)N1CCN(C(=O)C2(O)CCCC2)[C@H]2COC[C@@H](N3CCCC3)[C@@H]21 (single isomer, unassigned) [Example 5A125B]
  EC50: 35 nM
  Emax: 81%

## O=C(Cc1ccc(Cl)c(Cl)c1)N1CCN(C(=O)C2(O)CC2)[C@@H]2COC[C@H](N3CCCC3)[C@H]21 (single isomer, unassigned) [Example 5A126A]
  EC50: 16 nM
  Emax: 98%

## O=C(Cc1ccc(Cl)c(Cl)c1)N1CCN(C(=O)C2(O)CC2)[C@H]2COC[C@@H](N3CCCC3)[C@@H]21 (single isomer, unassigned) [Example 5A126B]
  EC50: 17 nM
  Emax: 107%

## O=C(Cc1ccc(Cl)c(Cl)c1)N1CCN(Cc2ccc(F)cc2)[C@@H]2COC[C@H](N3CCCC3)[C@H]21 (single isomer, unassigned) [Example 5A136A]
  EC50: 7 nM
  Emax: 105%

## O=C(Cc1ccc(Cl)c(Cl)c1)N1CCN(Cc2ccc(F)cc2)[C@H]2COC[C@@H](N3CCCC3)[C@@H]21 (single isomer, unassigned) [Example 5A136B]
  EC50: 74 nM
  Emax: 129%

## O=C(Cc1ccc(Cl)c(Cl)c1)N1CCN(CC2CCCO2)[C@H]2COC[C@@H](N3CCCC3)[C@@H]21 (single isomer, unassigned) [Example 5A138D]
  EC50: 100 nM
  Emax: 102%

## O=C(Cc1ccc(Cl)c(Cl)c1)N1CCN(S(=O)(=O)CCO)[C@@H]2COC[C@H](N3CCCC3)[C@H]21 (single isomer, unassigned) [Example 5A140A]
  EC50: 20 nM
  Emax: 112%

## O=C(Cc1ccc(Cl)c(Cl)c1)N1CCN(S(=O)(=O)CCO)[C@H]2COC[C@@H](N3CCCC3)[C@@H]21 (single isomer, unassigned) [Example 5A140B]
  EC50: 22 nM
  Emax: 107%

## COCCN1CCN(C(=O)Cc2ccc(Cl)c(Cl)c2)[C@H]2[C@H]1COC[C@@H]2N1CCCC1 (single isomer, unassigned) [Example 5A141A]
  EC50: 37 nM
  Emax: 96%

## COCCN1CCN(C(=O)Cc2ccc(Cl)c(Cl)c2)[C@H]2[C@H](N3CCCC3)COC[C@@H]21 (single isomer, unassigned) [Example 5A141B]
  EC50: 26 nM
  Emax: 103%

## O=C(Cc1ccc(Cl)c(Cl)c1)N1CCN(CCC2COC2)[C@@H]2COC[C@H](N3CCCC3)[C@H]21 (single isomer, unassigned) [Example 5A142A]
  EC50: 70 nM
  Emax: 77%

## O=C(Cc1ccc(Cl)c(Cl)c1)N1CCN(Cc2cccc(F)c2)[C@@H]2COC[C@H](N3CCCC3)[C@H]21 (single isomer, unassigned) [Example 5A145A]
  EC50: 5 nM
  Emax: 95%

## O=C(Cc1ccc(Cl)c(Cl)c1)N1CCN(Cc2cccc(F)c2)[C@H]2COC[C@@H](N3CCCC3)[C@@H]21 (single isomer, unassigned) [Example 5A145B]
  EC50: 9.7 nM
  Emax: 91%

## COCCS(=O)(=O)N1CCN(C(=O)Cc2ccc(Cl)c(Cl)c2)[C@H]2[C@H]1COC[C@@H]2N1CCCC1 (single isomer, unassigned) [Example 5A146A]
  EC50: 9.2 nM
  Emax: 91%
